# Values joined by “and” are separate entries in the source; they are usually repeats but may differ in a detail not shown here. Identical values can stand only once.
# Columns and labels:
# Format in all cases: cell-based
# [1] = molecular target: T1, CCK1R (Homo sapiens, UniProt P32238); test: IP-One accumulation TR-FRET assay, PAM format, HEK-293 CCK1R cells; design: expressed in transfected cells; host or cells: HEK-293; conditions: for Emax: HEK293, relative to CCK control; for Emax / CCK1R PAM (IP-One) Score (activity score = normalized Emax × pEC50) / EC50: HEK-293 CCK1R cells; for Emax / CCK1R PAM (IP-One) Score (activity score = normalized Emax × pEC50): PAM format; for Emax / EC50: average ± SD; for CCK1R IP-One activity (in words): PAM and agonist formats; for EC50: PAM format with EC20 CCK
# T1 sequence (P32238 1-428): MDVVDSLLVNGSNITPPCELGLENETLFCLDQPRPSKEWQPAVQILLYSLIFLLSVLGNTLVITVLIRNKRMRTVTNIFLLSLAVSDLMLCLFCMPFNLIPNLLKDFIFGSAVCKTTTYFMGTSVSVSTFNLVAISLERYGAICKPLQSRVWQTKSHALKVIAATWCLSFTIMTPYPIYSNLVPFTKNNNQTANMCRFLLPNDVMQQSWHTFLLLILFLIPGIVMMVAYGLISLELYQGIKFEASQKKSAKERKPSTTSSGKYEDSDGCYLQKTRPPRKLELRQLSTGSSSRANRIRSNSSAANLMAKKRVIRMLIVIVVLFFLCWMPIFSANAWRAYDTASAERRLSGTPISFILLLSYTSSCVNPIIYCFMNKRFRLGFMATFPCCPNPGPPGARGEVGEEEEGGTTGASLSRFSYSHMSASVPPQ
# Experimental: (§1) For structure–activity relationship studies, we performed myo-inositol-1-phosphate (IP-One) accumulation assays with TR-FRET technology applied to the HEK-293 cell line overexpressing CCK1Rs, as we had described in our high throughput screening effort. In brief, thawed cryopreserved cell stocks were re-suspended in IP-One assay media consisting of phenol-red free DMEM (Corning, Corning, NY, USA, #17-205-CV) with 10% FBS, 1% penicillin (10,000 units)/streptomycin (10 mg) (Pen/Strep, Thermo Fisher Scientific, Waltham, MA, USA, Gibco #15140122), and 1% L-glutamine (200 mM) (Gibco #25030081) and diluted to required cell densities. Then, the cell suspension was dispensed into a 1536-well tissue culture microplate (Corning, #3727), and the plate was incubated overnight at 37 °C and 5% CO^2. After 16–20 h, DMSO or compounds were added with an Echo liquid handler (Labcyte, San Jose, CA, USA), resulting in a top final compound concentration of 50 µM diluted 2-fold for 16-point dose–responses. For the positive allosteric modulator (PAM) format, orthosteric stimulator (CCK) dilutions for control wells were prepared in assay media containing 150 mM lithium chloride (LiCl, 50 mM final, Sigma-Aldrich, St Louis, MO, USA, #L7026). After a 30 min incubation of test compounds at 37 °C and 5% CO2, orthosteric stimulator dilutions (for PAM format) or equivalent dilutions of DMSO (for agonist format) were added to designated wells using BioRaptr (Beckman Coulter, Brea, CA, USA). In addition, CCK control ligand dilutions were included on each test plate. After that, the plate was incubated for 1 h at 37 °C and 5% CO^2 and equilibrated to room temperature. Detection reagents from the IP-One Gq detection kit from Cisbio (Cisbio US Inc., Bedford, MA, USA, #62IPAPEJ) were added, and after 1 h at RT, IP-One content was measured with a PHERAstar FSX microplate reader (BMG Labtech, Ortenberg, Germany). Control ligand dose–responses were analyzed using GraphPad Prism 9.3.1 (San Diego, CA, USA) to validate adequate control and test well concentrations for positive allosteric modulation (PAM) and agonist formats. Dose–response curves were performed as 16-point 2-fold dilutions in duplicates in at least three independent experiments. Large data sets were uploaded and analyzed with CBIS (Chemical and Biology Information System software, ChemInnovation Software, Inc., San Diego, CA, USA). Further data analysis for detailed SAR studies was conducted using the D360 software (Certara).
# (§2) The potency and efficacy data for these compounds were used to calculate their activity scores using the following formula: Activity Score = normalized Emax × pEC50. Normalized Emax represents the efficacy of the compound as a fractional response relative to that of the CCK control ligand. pEC50 represents the positive logarithmic value of compound EC50 concentrations in (M).
# [2] = molecular target: T1, CCK1R; test: IP-One accumulation TR-FRET assay, agonist format, HEK-293 CCK1R cells; design: expressed in transfected cells; host or cells: HEK-293; conditions: for Emax: HEK293, relative to CCK control, read-out: CCK1R Ago (IP-One) Emax
# Experimental: as §1, §2
# [3] = molecular target: T2, vasopressin-2 receptor (AVP2R) (Homo sapiens, UniProt P30518); test: AVP2R cAMP HTRF accumulation assay; conditions: for Emax / EC50: PAM format with vasopressin, original hits: agonist and PAM data combined, average ± SD; for AVP2R PAM (cAMP) Score (activity score = normalized Emax × pEC50) / AVP2R cAMP response (in words): PAM format
# T2 construct: expressed in transfected cells; host or cells: CHO-K1 (PAM format); HEK-293 (agonist format)
# T2 sequence (P30518 whole entry): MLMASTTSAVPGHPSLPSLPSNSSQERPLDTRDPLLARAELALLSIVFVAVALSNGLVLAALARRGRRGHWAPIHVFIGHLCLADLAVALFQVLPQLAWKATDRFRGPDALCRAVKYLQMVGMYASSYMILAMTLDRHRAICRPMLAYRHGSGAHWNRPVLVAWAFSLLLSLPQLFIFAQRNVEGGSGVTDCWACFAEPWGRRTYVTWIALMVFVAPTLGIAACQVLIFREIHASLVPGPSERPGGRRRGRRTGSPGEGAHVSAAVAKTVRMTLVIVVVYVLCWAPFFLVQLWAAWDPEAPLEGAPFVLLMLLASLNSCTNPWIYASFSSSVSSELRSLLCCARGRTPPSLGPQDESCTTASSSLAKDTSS
# Experimental: Possible off-target biological effects. […] Here, we tested them at the vasopressin-2 receptor (AVP2R), representing a class A GPCR structurally related to CCK1R, which is coupled to Gs. The activity at AVP2R was tested using AVP2R-overexpressing CHO-K1 (PAM format) or HEK-293 (agonist format) cells, stimulating the cells with vasopressin. Original hits were tested in both agonist and PAM formats. Since all recognized compound responses were present in both formats, we continued to screen analogs in only the PAM format (also able to capture agonist effects) in CHO-K1 AVP2R cells for potential enhanced sensitivity. The dose–response data sets for original hits were combined, as the PAM and agonist effects were indistinguishable. In brief, arginine vasopressin (AVP) orthosteric stimulator dilutions and ligand and compound dose–response titrations in DMSO were transferred onto a 1536-well plate (Corning #3725) using an Echo liquid handler (Labcyte). Thawed cryopreserved cell stocks were diluted in stimulation buffer consisting of HBSS (Hank’s Balanced Salt Solution with Ca^2+ and Mg^2+, Gibco #24020117), 5 mM HEPES (hydroxyethyl piperazineethanesulfonic acid), 0.5 mM IBMX (3-isobutyl-1-methylxanthine, Sigma-Aldrich), and 0.075% BSA (7.5% DTPA-purified bovine serum albumin, PerkinElmer). The resulting cell suspension was added to the microplate and incubated with test compounds at room temperature for 30 min. Then, the detection reagents from the Cisbio cAMP Gs Dynamic HTRF detection kit were added. The plate was kept at room temperature for 30 min and read on a PHERAstar FSX microplate reader. Dose–response curves were performed as 16-point 2-fold dilutions in duplicate in at least two independent experiments.
Structure (SMILES),Emax [1],CCK1R PAM (IP-One) Score (activity score = normalized Emax × pEC50) [1],CCK1R IP-One activity (in words) [1],CCK1R Ago (IP-One) Score (activity score = normalized Emax × pEC50) [2],Emax ([2]; average ± SD),"Emax ([3]; CHO-K1, CHO-K1 AVP2R cells)",AVP2R PAM (cAMP) Score (activity score = normalized Emax × pEC50) ([3]; CHO-K1 AVP2R cells),EC50 [1],EC50 ([3]; CHO-K1 AVP2R cells),Emax ([3]; CHO-K1 AVP2R cells),Log(Rmax/R50) ([1]; CCK1R IP-One PAM assay),AVP2R cAMP response (in words) [3],"EC50 ([2]; average ± SD, read-out: CCK1R Ago (IP-One) EC50)"
OCCNc1ncnc2c1sc1nc(N3CCOCC3)c3c(c12)CCCC3 [CMP-49],0%,0,None of these analogs showed any CCK1R activity,0,0%,0%,0,–,–,–,–,–,–
CCCc1nc2oc3c(NCCCN(CC)CC)ncnc3c2c2c1CCCC2 [CMP-36],25 ± 10%,1.32,–,0,–,–,1.41,3.3 ± 5.4 µM,6.1 ± 2.8 µM,27 ± 20%,–,–,–
c1nc(N2CCCC2)c2sc3nc(N4CCOCC4)c4c(c3c2n1)CCCC4 [CMP-64],–,–,significantly diminished responses,0,0%,–,0,–,–,0%,–,–,–
CCCc1nc2sc3c(SC)ncnc3c2c2c1CCCC2 [CMP-38],20 ± 7.6%,1.0 and 1.01,–,0,0%,–,0,7.6 ± 3.3 µM,–,0%,4.4,–,–
CC(C)Cc1nc2oc3c(N4CCNCC4)ncnc3c2c2c1CCCC2 [CMP-15],43 ± 3%,2.04,–,0,–,–,2.97,17.8 ± 6.2 µM,7.3 ± 3.3 µM,58 ± 15%,–,–,–
O=C(CSc1ncnc2c1sc1nc(N3CCOCC3)c3c(c12)CCCC3)NCc1ccco1 [CMP-65],0%,0,–,0,0%,–,4.78,–,10 ± 1.7 µM,96 ± 5%,–,strong activation of AVP2R-mediated cAMP accumulation,–
COc1ccc(NC(=O)CSc2ncnc3c2sc2nc(N4CCOCC4)c4c(c23)CCCC4)cc1 [CMP-40],0%,0,–,0,0%,–,5.33,–,2.9 ± 0.1 µM,96 ± 9%,–,strong activation of AVP2R-mediated cAMP accumulation,–
CN(C)CCNc1ncnc2c1sc1nc(-c3ccccc3)c3c(c12)CCCC3 [CMP-14],44 ± 10%,2.17,–,0.72,17 ± 5%,–,3.0 and 2.97,8.9 ± 1.7 µM,4.7 ± 4.1 µM,56 ± 33%,–,–,29.7 ± 8 µM
CN1CCN(c2ncnc3c2sc2nc(N4CCCCC4)c4c(c23)CCCC4)CC1 [CMP-31],35 ± 14%,1.5 and 1.54,–,0,0%,–,1.26,29.6 ± 1.8 µM,5.4 ± 1.7 µM,24 ± 3%,–,–,–
CCN(CC)CCNc1ncnc2c1sc1nc(N3CCCCC3)c3c(c12)CCCC3 [CMP-6],57 ± 27%,2.6 and 2.58,–,0,0%,–,1.7 and 1.67,13.8 ± 3.2 µM,9.9 ± 0.5 µM,33 ± 1%,–,–,–
OCCN1CCN(c2ncnc3c2sc2nc(-c4ccccc4)c4c(c23)CCC4)CC1 [CMP-37],28 ± 9%,1.26,loss of activities across all formats,0,0%,–,0,31.7 ± 1.2 µM,–,0%,–,–,–

# Reference: paper PMC9964746, “Mechanism of Action and Structure–Activity Relationships of Tetracyclic Small Molecules Acting as Universal Positive Allosteric Modulators of the Cholecystokinin Receptor” (Membranes, 2023)
